Our source for the Ki values is patent US7812021B2, “Pyrrolidine aryl-ether as NK3 receptor antagonists” (Hoffmann-La Roche Inc., priority 2007, dated 2010).

The target of the experiment is T1, recombinant human NK3 receptor (Homo sapiens, UniProt P29371).
T1 construct: expressed in transfected cells; host or cells: HEK293 cells, transient expression; membranes
T1 sequence (P29371 1-465): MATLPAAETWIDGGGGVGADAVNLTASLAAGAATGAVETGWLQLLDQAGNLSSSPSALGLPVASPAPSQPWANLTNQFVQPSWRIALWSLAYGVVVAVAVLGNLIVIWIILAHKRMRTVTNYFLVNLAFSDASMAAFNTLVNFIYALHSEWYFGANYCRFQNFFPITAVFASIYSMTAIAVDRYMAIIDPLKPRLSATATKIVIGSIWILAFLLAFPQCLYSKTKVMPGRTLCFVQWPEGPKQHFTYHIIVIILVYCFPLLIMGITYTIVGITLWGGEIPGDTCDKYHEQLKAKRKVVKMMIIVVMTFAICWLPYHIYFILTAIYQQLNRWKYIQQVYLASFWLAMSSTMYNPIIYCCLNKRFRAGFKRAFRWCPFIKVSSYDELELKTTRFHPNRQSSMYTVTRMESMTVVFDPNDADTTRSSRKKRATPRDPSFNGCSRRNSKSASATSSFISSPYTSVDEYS
Put plainly: [3H]SR142801 competition binding assay. The note with it: membranes from HEK293 cells transiently expressing recombinant human NK3 receptor; [3H]SR142801 radioligand; Ki by Cheng-Prussoff. The protocol: [^3H]SR142801 Competition Binding Assay
hNK3 receptor binding experiment were performed using [^3H]SR142801 (Catalog No. TRK1035, specific activity: 74.0 Ci/mmol, Amersham, GE Healthcare UK limited, Buckinghamshire, UK) and membrane isolated from HEK293 cells transiently expressing recombinant human NK3 receptor. After thawing, the membrane homogenates were centrifuged at 48,000×g for 10 min at 4° C., the pellets were resuspended in the 50 mM Tris-HCl, 4 mM MnCl2, 1 μM phosphoramidon, 0.1% BSA binding buffer at pH 7.4 to a final assay concentration of 5 μg protein/well. For inhibition experiments, membranes were incubated with [^3H]SR142801 at a concentration equal to KD value of radioligand and 10 concentrations of the inhibitory compound (0.0003-10 μM) (in a total reaction volume of 500 μl) for 75 min at room temperature (RT). At the end of the incubation, membranes were filtered onto unit filter (96-well white microplate with bonded GF/C filter preincubated 1 h in 0.3% PEI+0.3% BSA, Packard BioScience, Meriden, Conn.) with a Filtermate 196 harvester (Packard BioScience) and washed 4 times with ice-cold 50 mM Tris-HCl, pH 7.4 buffer. Nonspecific binding was measured in the presence of 10 μM SB222200 for both radioligands. The radioactivity on the filter was counted (5 min) on a Packard Top-count microplate scintillation counter with quenching correction after addition of 45 μl of microscint 40 (Canberra Packard S. A., Zürich, Switzerland) and shaking for 1 h. Inhibition curves were fitted according to the Hill equation: y=100/(1+(x/IC50)^nH), where nH=slope factor using Excel-fit 4 software (Microsoft). IC50 values were derived from the inhibition curve and the affinity constant (Ki) values were calculated using the Cheng-Prussoff equation Ki=IC50/(1+[L]/KD) where [L] is the concentration of radioligand and KD is its dissociation constant at the receptor, derived from the saturation isotherm. All experiments were performed in duplicate and the mean±standard error (SEM) of the individual Ki values was calculated.

In general, Ki refers to a dissociation constant, usually derived from enzyme kinetics or from competition with a known ligand. Regarding `C[C@H](Oc1ccc(Cl)cc1)[C@@H]1CN(C(=O)N2CCN(S(C)(=O)=O)CC2)C[C@H]1c1ccc(Cl)c(Cl)c1` (racemic) [Example 48, [(3SR,4RS)-3-[(SR)-1-(4-Chloro-phenoxy)-ethyl]-4 (3,4-dichloro-phenyl)-pyrrolidin-1-yl]-(4-methanesulfonyl-piperazin-1-yl)-methanone], the Ki came out at 68 nM. To “N-(1-{2-[(3SR,4RS)-[3-(RS)-1-(4-Chloro-phenoxy)-ethyl]-4-(3,4-dichloro-phenyl)-pyrrolidin-1-yl]-2-oxo-ethyl}-piperidin-4-yl)-N-methyl-acetamide [Example 65]” belongs 20 nM; to `C[C@@H](Oc1ccc(F)cn1)[C@@H]1CN(C(=O)N2CCN(S(C)(=O)=O)CC2)C[C@H]1c1ccc(Cl)c(Cl)c1` (racemic) [Example 59, {(3RS,4SR)-3-(3,4-Dichloro-phenyl)-4-[(RS)-1-(5-fluoro-pyridin-2-yloxy)-ethyl]-pyrrolidin-1-yl}-(4-methanesulfonyl-piperazin-1-yl)-methanone], 12.6 nM; to `C[C@@H](Oc1ccc(C(F)(F)F)cc1)[C@@H]1CN(C(=O)N2CCN(S(C)(=O)=O)CC2)C[C@H]1c1ccc(Cl)c(Cl)c1` (racemic) [Example 16, {(3RS,4SR)-3-(3,4-Dichloro-phenyl)-4-[(RS)-1-(4-trifluoromethyl-phenoxy)-ethyl]-pyrrolidin-1-yl}-(4-methanesulfonyl-piperazin-1-yl)-methanone], 28.8 nM. For the compound `C[C@@H](Oc1ccc(Cl)cc1)[C@@H]1CN(C(=O)CN2CCC(CO)CC2)C[C@H]1c1ccc(Cl)c(Cl)c1` (racemic) [Example 67, 1-[(3SR,4RS)-3-[(RS)-1-(4-Chloro-phenoxy)-ethyl]-4-(3,4-dichloro-phenyl)-pyrrolidin-1-yl]-2-(4-hydroxymethyl-piperidin-1-yl)-ethanone], the Ki worked out at 53 nM. For `C[C@@H](Oc1ccc(Cl)cn1)[C@@H]1CN(C(=O)N2CC3(COC3)C2)C[C@H]1c1ccc(Cl)c(Cl)c1` (racemic) [Example 61, [(3SR,4RS)-3-[(RS)-1-(5-Chloro-pyridin-2-yloxy)-ethyl]-4-(3,4-dichloro-phenyl)-pyrrolidin-1-yl]-(2-oxa-6-aza-spiro[3.3]hept-6-yl)-methanone], the Ki came to 39 nM.

With `C[C@H](Oc1ccc(C(F)(F)F)cn1)[C@H]1CN(C(=O)N2CCN(S(C)(=O)=O)CC2)C[C@@H]1c1ccc(Cl)c(Cl)c1` (racemic) [Example 69, {(3SR,4RS)-3-(3,4-Dichloro-phenyl)-4-[(SR)-1-(5-trifluoromethyl-pyridin-2-yloxy)ethyl]-pyrrolidin-1-yl}-(4-methanesulfonyl-piperazin-1-yl)-methanone], the Ki worked out at 5.6 nM. For `C[C@H](Oc1ccc(C#N)cc1)[C@@H]1CN(C(=O)N2CCN(S(C)(=O)=O)CC2)C[C@H]1c1ccc(Cl)c(Cl)c1` (racemic) [Example 45, 4-{(SR)-1-[(3SR,4RS)-4-(3,4-Dichloro-phenyl)-1-(4-methanesulfonyl-piperazine-1-carbonyl)-pyrrolidin-3-yl]-ethoxy}-benzonitrile], the Ki is 95.4 nM. Regarding `C[C@@H]1CN(C(=O)N2C[C@@H]([C@@H](C)Oc3ccc(C(F)(F)F)cc3)[C@H](c3ccc(Cl)c(Cl)c3)C2)CCN1S(C)(=O)=O` (mixture of isomers) [Example 27, {(3RS,4SR)-3-(3,4-Dichloro-phenyl)-4-[(RS)-1-(4-trifluoromethyl-phenoxy)-ethyl]-pyrrolidin-1-yl}-((R)-4-methanesulfonyl-3-methyl-piperazin-1-yl)-methanone], the Ki was 9.6 nM. With `C[C@H](Oc1ccc(F)cc1)[C@@H]1CN(C(=O)N2CCN(S(C)(=O)=O)CC2)C[C@H]1c1ccc(Cl)c(Cl)c1` (racemic) [Example 46, {(3RS,4SR)-3-(3,4-Dichloro-phenyl)-4-[(SR)-1-(4-fluoro-phenoxy)-ethyl]-pyrrolidin-1-yl}-(4-methanesulfonyl-piperazin-1-yl)-methanone], the inhibition constant (Ki) came out at 49.7 nM. As to `C[C@@H]1CN(C(=O)N2C[C@@H]([C@@H](C)Oc3ccc(Cl)cn3)[C@H](c3ccc(Cl)c(Cl)c3)C2)CCN1S(C)(=O)=O` (mixture of isomers) [Example 54, [(3SR,4RS)-3-[(RS)-1-(5-Chloro-pyridin-2-yloxy)-ethyl]-4-(3,4-dichloro-phenyl)-pyrrolidin-1-yl]-((R)-4-methanesulfonyl-3-methyl-piperazin-1-yl)-methanone], the Ki stood at 2 nM.

With `C[C@@H](Oc1ncccn1)[C@@H]1CN(C(=O)N2CCN(S(C)(=O)=O)CC2)C[C@H]1c1ccc(Cl)c(Cl)c1` (racemic) [Example 42, [(3RS,4SR)-3-(3,4-Dichloro-phenyl)-4-[(RS)-1-(pyrimidin-2-yloxy)-ethyl]-pyrrolidin-1-yl}-(4-methanesulfonyl-piperazin-1-yl)-methanone], the Ki amounted to 69.9 nM. As for `CC(=O)NC1(c2ccccc2)CCN(CC(=O)N2C[C@@H]([C@@H](C)Oc3ccc(Cl)cc3)[C@H](c3ccc(Cl)c(Cl)c3)C2)CC1` (racemic) [Example 64, N-(1-{2-[(3SR,4RS)-3-[(RS)-1-(4-Chloro-phenoxy)-ethyl]-4-(3,4-dichloro-phenyl)-pyrrolidin-1-yl]-2-oxo-ethyl}-4-phenyl-piperidin-4-yl)-acetamide], the Ki came out at 19 nM. In the case of `C[C@@H](Oc1ccc(Cl)cn1)[C@@H]1CN(C(=O)N2CCN(S(C)(=O)=O)CC2)C[C@H]1c1ccc(Cl)c(Cl)c1` (racemic) [Example 39, [(3SR,4RS)-3-[(RS)-1-(5-Chloro-pyridin-2-yloxy)-ethyl]-4-(3,4-dichloro-phenyl)-pyrrolidin-1-yl]-(4-methanesulfonyl-piperazin-1-yl)-methanone], the Ki worked out at 2.9 nM. Turning to `CC(=O)NC1CCN(CC(=O)N2C[C@@H]([C@@H](C)Oc3ccc(C(F)(F)F)cc3)[C@H](c3ccc(Cl)c(Cl)c3)C2)CC1` (racemic) [Example 25, N-[1-(2-{(3RS,4SR)-3-(3,4-Dichloro-phenyl)-4-[(RS)-1-(4-trifluoromethyl-phenoxy)-ethyl]-pyrrolidin-1-yl}-2-oxo-ethyl)-piperidin-4-yl]-acetamide], the Ki stood at 59.7 nM. Take `C[C@@H](Oc1ccc(C#N)cc1)[C@@H]1CN(C(=O)N2CCN(S(C)(=O)=O)CC2)C[C@H]1c1ccc(Cl)c(Cl)c1` (racemic) [Example 33, 4-{(RS)-1-[(3SR,4RS)-4-(3,4-Dichloro-phenyl)-1-(4-methanesulfonyl-piperazine-1-carbonyl)-pyrrolidin-3-yl]ethoxy}-benzonitrile]: the Ki was 75.6 nM. With `C[C@@H](Oc1ncc(Cl)cn1)[C@@H]1CN(C(=O)N2CCN(S(C)(=O)=O)CC2)C[C@H]1c1ccc(Cl)c(Cl)c1` (racemic) [Example 53, [(3SR,4RS)-3-[(RS)-1-(5-Chloro-pyrimidin-2-yloxy)-ethyl]-4-(3,4-dichloro-phenyl)-pyrrolidin-1-yl]-(4-methanesulfonyl-piperazin-1-yl)-methanone], the Ki was determined as 6.8 nM. As to `C[C@@H](Oc1ccc(Cl)c(Cl)c1)[C@@H]1CN(C(=O)N2CCN(S(C)(=O)=O)CC2)C[C@H]1c1ccc(Cl)c(Cl)c1` (racemic) [Example 30, [(3SR,4RS)-3-[(RS)-1-(3,4-Dichloro-phenoxy)-ethyl]-4-(3,4-dichloro-phenyl)-pyrrolidin-1-yl]-(4-methanesulfonyl-piperazin-1-yl)-methanone], the Ki is 79.6 nM. For the compound `C[C@H](Oc1ccc(C(F)(F)F)cn1)[C@H]1CN(C(=O)N2CC3CC2CO3)C[C@@H]1c1ccc(Cl)c(Cl)c1` (mixture of isomers) [Example 73, {(3SR,4RS)-3-(3,4-Dichloro-phenyl)-4-[(SR)-1-(5-trifluoromethyl-pyridin-2-yloxy)-ethyl]-pyrrolidin-1-yl}-(2-oxa-5-aza-bicyclo[2.2.1]hept-5-yl)-methanone], the Ki amounted to 93 nM.
